Measured values taken from patent US20090022675A1, “ESTERS WITH WARMING PROPERTIES” (priority 2007, published 2009).

Assay: Warming properties: rise in temperature on mixing with water (heat of solution)
Type: physicochemical
Settings: mixed with water; Hest G-18-O maximum when about 60% by weight is used
Excerpt: When Hest G-18-O is mixed with water at ambient temperature, there is a rise in temperature. The rise in temperature ranges from about 5 degrees C. to about 15 degrees C.; it also ranges from about 8 degrees C. to about 12 degrees C. This rise in temperature is about 2-3 times more than that obtained with the same weight of glycerine (FIG. 1) or propylene glycol. The temperature rise reaches a maximum of about 12 degrees C. when about 60% by weight of Hest G-18-O is used. This compares to a maximum of only about 5 degrees C. for glycerine or propylene glycol.
The maximum amount of heat (though not the greatest rise in temperature) is obtained when the Hest G-18-O is dissolved in a large excess of water. If the Hest G-18-O, glycerine or propylene glycol is not anhydrous, some of its heat of solution will already have been dissipated. Correspondingly, smaller amounts of heat will be produced by further dilution.

| maximum temperature rise | Compound |
| --- | --- |
| about 5 degrees C. | OCC(O)CO [glycerine] |
| about 5 degrees C. | CC(O)CO (centres unmarked) [propylene glycol] |
